Assay results taken from EP0147146A2, “Enhancement of transdermal drug delivery” (AMERICAN HOME PRODUCTS CORPORATION, priority 1983, dated 1985).
Where a name gives a salt, the structure may show the parent alone.

Experiment: in-vitro percutaneous transfer test with nude mouse skin in a diffusion cell
Format: in vitro ADME
Description: The test formulation was first impregnated into 1-inch diameter circles of a thin non-woven rayon fabric usually in amounts representing about 20 mg or more per cm^2 of skin. The impregnated fabric was applied to the outside or epidermal side of the skin while the inside or tissue side of the skin was exposed to an aerated and stirred volume of Ringer's injection fluid maintained at about 37° C. Samples were taken at intervals from the stirred solution and assayed for drug content. The calculated total amount of percutaneously transferred drug is expressed as mg drug per cm^2 of exposed skin.
Two circles of non-woven fabric were impregnated with each formulation (designated A1, A2 and B1, B2 respectively) and tested for percutaneous drug transfer across nude mouse skin.
Two circles of nonwoven fabric were impregnated with each formulation, so as to contain 2-3 mg of conjugated estrogens. These were applied to nude mouse skins (6 em^2 exposed surface) for transdermal penetration tests. The average of duplicate tests is given below, in units of µg of transferred estrogen per cm^2 of exposed skin surface.

## C[C@]12CC[C@@H]3c4ccc(O)cc4CC[C@H]3[C@@H]1CC[C@@H]2O [17-β -estradiol]
Lipophilic vehicles, nude mouse skin
  percutaneous transfer with and without menthol: no significant differences

## CCc1cccc2c3c([nH]c12)C(CC)(CC(=O)O)OCC3 (stereo not drawn) [etodolac, 1.8-diethyl-1,3,4,9-tetrahydropyrano[3,4-b] indole-1-acetic acid]
With vs without 5% menthol in a glycerol/propylene glycol vehicle, nude mouse skin
  increase in percutaneous transfer in the presence of menthol: about a three fold increase

## C[C@]12CC[C@@H]3c4ccc(OS(=O)(=O)O)cc4CC[C@H]3[C@@H]1CC[C@@H]2O [17-B -estradiol-3-sodium sulfate]
  flux rates of formulations containing menthol: significantly higher flux rates
